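96-well plates; 48 h exposure; 5 concentrations. Endpoints by linear interpolation between flanking doses. Not reached: highest tested concentration assigned. The concentration for 50% growth inhibition is given as GI50. TGI: concentration producing complete growth inhibition.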
Columns and labels:
Assay in all cases: NCI-60 cell line screen, 48 h
[1] = tested on: T-47D breast
[2] = tested on: OVCAR-8 ovarian
[3] = tested on: DMS 273 small cell lung
[4] = tested on: MALME-3M melanoma
[5] = tested on: NCI-H23 lung
[6] = tested on: SNB-19 CNS
[7] = tested on: KM20L2 colon
[8] = tested on: LOX IMVI melanoma
[9] = tested on: UACC-257 melanoma
[10] = tested on: PC-3 prostate

Compound | TGI [1] | TGI [2] | TGI [3] | TGI [4] | TGI [5] | TGI [6] | TGI [7] | TGI [8] | TGI [9] | TGI [10] | GI50 [2] | GI50 [3] | GI50 [4] | GI50 [5] | GI50 [6] | GI50 [7] | GI50 [8] | GI50 [9]
CC(=O)O[C@H]1C(=O)[C@@]2(C)C(C(OC(=O)c3ccccc3)[C@]3(O)C[C@H](OC(=O)C(OC(=O)CCCC(=O)NCCCN(C)C)C(NC(=O)c4ccccc4)c4ccccc4)C(C)=C1C3(C)C)C1(OC(C)=O)COC1C[C@@H]2O (some centres not stated) | 47.8 µM | 15.3 µM | 0.553 µM | 20.8 µM | 18.2 µM | > 100 µM | < 0.01 µM | 19.2 µM | 33.5 µM | 43 µM | – | – | – | – | – | – | – | –
COC(=O)C(C(=O)C(=O)Nc1c(C)cccc1C)c1cnc2ccccc2n1 (configuration not stated) | – | > 100 µM | > 100 µM | > 100 µM | > 100 µM | > 100 µM | > 100 µM | > 100 µM | > 100 µM | – | – | – | – | – | – | – | – | –
N.N.N.N.N.[Co+3].[I-].[N-]=[N+]=[N-] | – | > 100 µM | > 100 µM | > 100 µM | > 100 µM | > 100 µM | > 100 µM | > 100 µM | > 100 µM | – | > 100 µM | > 100 µM | > 100 µM | > 100 µM | > 100 µM | > 100 µM | > 100 µM | > 100 µM
O=C1C2Nc3ccccc3SC2C(=O)N1c1ccc(Br)cc1 (configuration not stated) | – | > 100 µM | > 100 µM | > 100 µM | > 100 µM | > 100 µM | > 100 µM | > 100 µM | > 100 µM | – | – | – | – | – | – | – | – | –
CC(C)(CN1CCCCC1)C(=O)/C=C/c1ccc(/C=C/C(=O)C(C)(C)CN2CCCCC2)cc1 | 1.65 µM | 3.57 µM | 1.23 µM | 2.24 µM | 2.04 µM | 3.15 µM | 1.65 µM | 0.856 µM | 2.13 µM | 0.82 µM | – | – | – | – | – | – | – | –
CN1c2ccccc2N(C(=O)c2ccc([N+](=O)[O-])cc2)C(CC(=O)O)c2cccn21 (configuration not stated) | – | > 100 µM | > 100 µM | > 100 µM | > 100 µM | > 100 µM | > 100 µM | > 100 µM | > 100 µM | – | – | – | – | – | – | – | – | –
CCC(C)CCOC(=O)c1ccc(N=Cc2ccc(C=Nc3ccc(C(=O)OCCC(C)CC)cc3)cc2)cc1 (configuration not stated) | – | > 100 µM | > 100 µM | > 100 µM | > 100 µM | > 100 µM | > 100 µM | > 100 µM | > 100 µM | – | – | – | – | – | – | – | – | –
O=C(N/C(=C\c1ccc(Cl)cc1)c1nc2ccccc2[nH]1)c1ccccc1 | – | 52.8 µM | 42.9 µM | > 100 µM | 42.9 µM | 88 µM | 30.8 µM | 31.5 µM | 46.2 µM | – | – | – | – | – | – | – | – | –
CC(C)(O)[C@@H]1CC[C@@]2(C)CCCC(O)C2(O)C1 (some centres not stated) | – | > 100 µM | > 100 µM | > 100 µM | > 100 µM | > 100 µM | > 100 µM | > 100 µM | > 100 µM | – | – | – | – | – | – | – | – | –
C[C@@H](NC1CCCC[C@H]1O)c1ccccc1 (some centres not stated) | – | > 100 µM | > 100 µM | > 100 µM | > 100 µM | > 100 µM | > 100 µM | > 100 µM | > 100 µM | – | – | – | – | – | – | – | – | –
CC(=O)OCC1OC(n2cc(F)c(=O)[nH]c2=O)C(NC(=O)N(CCCl)N=O)C(OC(C)=O)C1OC(C)=O (configuration not stated) | – | > 100 µM | > 100 µM | > 100 µM | > 100 µM | > 100 µM | > 100 µM | > 100 µM | > 100 µM | – | – | – | – | – | – | – | – | –
C/C(=C1/N=C(c2cc([N+](=O)[O-])ccc2Cl)N(c2cccc(C)c2)C1=O)c1cc2ccccc2oc1=O | – | > 100 µM | > 100 µM | > 100 µM | > 100 µM | > 100 µM | > 100 µM | 37.1 µM | 77.3 µM | – | – | – | – | – | – | – | – | –
CCCCCN(CCCCC)C(=O)[C@@H](CCC(=O)O)NC(=O)c1cc2ccccc2[nH]1 | – | > 100 µM | > 100 µM | > 100 µM | 58 µM | > 100 µM | > 100 µM | > 100 µM | > 100 µM | – | – | – | – | – | – | – | – | –
O=C(/C=C/c1cc(Cl)cc(Cl)c1O)c1cccc(O)c1 | – | > 100 µM | > 100 µM | 87.3 µM | > 100 µM | > 100 µM | > 100 µM | 25.5 µM | > 100 µM | – | – | – | – | – | – | – | – | –
CN(C)C=Nc1ccn(CCO)c(=O)n1 | – | > 100 µM | > 100 µM | > 100 µM | > 100 µM | > 100 µM | > 100 µM | > 100 µM | > 100 µM | – | – | – | – | – | – | – | – | –

From PubChem BioAssay (NCI)
